Assays:
[1] = Clinical examples: treatment of stomatitis in cancer patients subjected to chemotherapy and/or radiotherapy; format: in vivo, patient
Text: Examples (Clinical Examples):
The frequency indicated in each example indicates a symptomatic process and was judged on the basis of the side effect standard by the Japanese Cancer Association. The frequency and symptom thereof are as follows, and a higher frequency indicates a severer symptom. […]

[2] = system: rats; experiment: Acute toxicity (oral administration to rats); format: in vivo
Procedure: (2) The LD50 value of the sodium alginate was 5,000 mg/kg as determined by oral administration to rats.

For `NCCC(=O)[N-][C@@H](Cc1c[nH]cn1)C(=O)[O-].[Zn+2]` [crystalline L-carnosine zinc salt, L-carnosine zinc salt], the “clinical outcome of stomatitis” value ([1]; Example 1, suspension 150 mg/100 ml, 5 ml, 5 or 6 times a day, 8 days) was “the erosion and ulcer arisen on the intraoral mucosa were completely healed”, the “clinical outcome of stomatitis” value ([1]; Example 2, suspension 450 mg/100 ml, 5 ml, 2 to 4 times a day 6 days, then 3 days, swab additional 2 days) was “the ulcer arisen on the intraoral mucosa and angulus oris was completely healed, and the patient became able to ingest a solid diet” and the “clinical outcome of stomatitis” value ([1]; Example 3, suspension 300 mg/100 ml, 5 ml, twice a day, 10 days) was “the ulcer arisen on the intraoral mucosa was completely healed, and the patient became able to ingest a solid diet”. For the same compound, the “clinical outcome of stomatitis” value ([1]; Example 12, ointment 150 mg in plastibase 100 g, swab, 3 to 5 times a day, 9 days) was “the ulcer in the oral cavity was completely healed, and the patient became able to ingest a solid diet” and the LD50 [2] was 8,441 mg/kg.
For sodium alginate [reference compound], the LD50 [2] was 5,000 mg/kg.
